The record followed here is patent US6699863B1, “Kinase inhibitors for the treatment of disease” (Allergan, Inc., priority 2002, dated 2004).

The structures appear in SMILES notation.

Series [1] relates to VEGF induced increases in intracellular calcium levels in HUVEC (human umbilical vein endothelial cells). The series is described as follows: VEGF Stimulated Ca++ Signal In vitro (FLIPR). It is filed as cell-based. Particulars: VEGF stimulation 5 ng/mL, 30 min pre-incubation. How it is done: Automated FLIPR (Fluorometric Imaging Plate Reader) technology was used to screen for inhibitors of VEGF induced increases in intracellular calcium levels in fluorescent dye loaded endothelial cells. HUVEC (human umbilical vein endothelial cells) (Clonetics) were seeded in 96-well fibronectin coated black-walled plates overnight at 37° C./5%CO2. Cells were loaded with calcium indicator Fluo-4 for 45 minutes at 37° C. Cells were washed 4 times (Original Cell Wash, Labsystems) to remove extracellular dye. Test compounds were reconstituted in 100% DMSO and added to the cells to give a final DMSO concentration of 0.1%. For screening, cells were pre-incubated with test agents for 30 minutes, at a single concentration (10 μM) or at concentrations ranging from 0.01 to 10.0 μM followed by VEGF stimulation (5 ng/mL). Changes in fluorescence at 516 nm were measured simultaneously in all 96 wells using a cooled CCD camera. Data were generated by determining max-min fluorescence levels for unstimulated, stimulated, and drug treated samples. IC50 values for test compounds were calculated from % inhibition of VEGF stimulated responses in the absence of inhibitor.

Series [2] deals with T1, human VEGF receptor (VEGFR-2) (Homo sapiens, UniProt P35968).
T1 construct: The cytoplasmic domain of the human VEGF receptor (VEGFR-2) was expressed; His (histidine tag); made in house; host or cells: insect cells (engineered baculovirus)
T1 sequence (P35968 786-1356 limits assumed): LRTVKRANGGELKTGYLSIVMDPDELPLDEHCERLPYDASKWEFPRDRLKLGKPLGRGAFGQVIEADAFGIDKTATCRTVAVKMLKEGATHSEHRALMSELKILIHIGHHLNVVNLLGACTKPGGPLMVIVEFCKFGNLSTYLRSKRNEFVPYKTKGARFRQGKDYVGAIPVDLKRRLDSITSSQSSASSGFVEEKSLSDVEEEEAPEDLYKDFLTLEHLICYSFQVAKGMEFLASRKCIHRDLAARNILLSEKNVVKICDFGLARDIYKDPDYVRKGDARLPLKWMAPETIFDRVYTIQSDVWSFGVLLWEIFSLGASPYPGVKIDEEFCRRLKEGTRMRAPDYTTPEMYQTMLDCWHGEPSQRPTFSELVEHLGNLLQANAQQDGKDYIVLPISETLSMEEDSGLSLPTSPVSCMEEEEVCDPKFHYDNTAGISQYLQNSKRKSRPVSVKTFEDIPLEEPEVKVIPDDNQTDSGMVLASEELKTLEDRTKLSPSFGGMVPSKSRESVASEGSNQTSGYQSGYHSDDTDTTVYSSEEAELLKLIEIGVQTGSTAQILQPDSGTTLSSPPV
Nature of the series: VEGFR2 Kinase Assay. It is filed as biochemical. Particulars: 3.6 μM ATP, poly-Glu-Tyr (4:1). How it is done: The cytoplasmic domain of the human VEGF receptor (VEGFR-2) was expressed as a Hisfidine-tagged fusion protein following infection of insect cells using an engineered baculovirus. His-VEGFR-2 was purified to homogeneity, as determined by SDS-PAGE, using nickel resin chromatography. Kinase assays were performed in 96 well microtiter plates that were coated overnight with 30 μg of poly-Glu-Tyr (4:1) in 10 mM Phosphate Buffered Saline (PBS), pH 7.2-7.4. The plates were incubated with 1% BSA and then washed four times with PBS prior to starting the reaction. Reactions were carried out in 120 μL reaction volumes containing 3.6 μM ATP in kinase buffer (50 mM Hepes buffer pH 7.4, 20 mM MgCl2, 0.1 mM MnCl2 and 0.2 mM Na3VO4). Test compounds were reconstituted in 100% DMSO and added to the reaction to give a final DMSO concentration of 5%. Reactions were initiated by the addition 0.5 ng of purified protein. Following a ten minute incubation at 25° C., the reactions were washed four times with PBS containing 0.05% Tween-20. 100 μl of a monoclonal anti-phosphotyrosine antibody-peroxidase conjugate was diluted 1:10000 in PBS-Tween-20 and added to the wells for 30 minutes. Following four washes with PBS-Tween-20, 100 μl of O-phenylenediamine Dihydrochloride in Phosphate-citrate buffer, containing urea hydrogen peroxide, was added to the wells for 7 minutes as a colorimetric substrate for the peroxidase. The reaction was terminated by the addition of 100 μl of 2.5N H2SO4 to each well and read using a microplate ELISA reader set at 492 nm. IC50 values for compound inhibition were calculated directly from graphs of optical density (arbitrary units) versus compound concentration following subtraction of blank values.

For series [3], the system named is VEGF-induced EBD extravasation. Nature of the series: VEGF-induced Dermal Extravasation in Guinea Pig (Miles Assay). The class given is in vivo. Particulars: vehicle corn oil; for % Inhibition @ Dose (mg/Kg): 75 mg/Kg single oral dose. How it is done:
Male Hartley guinea pigs (300-600 g) were anesthetized with isofluorane, sheared, and given a single dose of drug or the respective vehicle. The guinea pigs were dosed orally unless indicated otherwise in Table 3. Ten minutes prior to the end of drug treatment, guinea pigs were anesthetized with isofluorane, and 0.5% Evans blue dye (EBD) in PBS (13-15 mg/kg dose of EBD) was injected intravenously. After 5 minutes, triplicate intradermal injections of 100 ng rhVEGF165 in 100 μl PBS and of 100 μl PBS alone were administered on the flank. After 20 minutes, each animal was euthanized with Pentosol, and the skin containing the intradermal injection sites was removed for image analysis.
Using an analog video camera coupled to a PC, an image of each trans-illuminated skin sample was captured, and the integrated optical density of each injection site was measured using ImagePro 4. For each skin sample, the difference between the mean optical density of the VEGF sites and mean optical density of the PBS sites is the measure of VEGF-induced EBD extravasation in that animal. These measured values were averaged per study group to determine the mean VEGF-induced EBD extravasation for each experimental condition, and the group means were then compared to assess inhibition of VEGF-induced EBD extravasation in the drug-treated groups relative to the vehicle-treated controls.
(§1) To determine the dose required for 50% inhibition (ID50), the percent inhibition data was plotted as a function of oral dose, using the ‘best-fit’ analysis within MicroSoft Excel software. The ID50 value was verified visually by using the plotted data (horizontal line from 50% y value, at intersection with best-fit line drop vertical line to x axis (dose).

For series [4], the system named is laser-induced choroidal neovascularization. The series is described as follows: Laser-induced Choroidal Neovascularization (CNV) in Rat (CNV Assay). It is filed as in vivo. The settings on record: vehicle corn oil. How it is done:
CNV was induced and quantified in this model as previously described (Edelman and Castro. Exp. Eye Res. 2000; 71:523-533). On day 0, male Brown Norway rats (200-300 g) were anesthetized with 100 mg/kg Ketamine and 10 mg/kg Xylazine, and pupils were dilated with 1% Tropicamide. Using the blue-green setting of a Coherent Novus Argon Laser, 3 laser bums (90 mW for 0.1 s; 100 μm diameter) were given to each eye between the retinal vessels around the optic nerve head. Rats were dosed with test compounds in their indicated vehicles orally once daily.
On day 10, rats were sacrificed with 100% CO2, and blood vessels were labeled by vascular perfusion with 10 mg/ml FITC-dextran (MW 2×10^6). Using an epifluorescence microscope (20×) coupled to a spot digital camera and a PC, images were obtained from the flat mounts of the RPE-choroid-sclera from each eye, and the area occupied by hyperfluorescent neovessels within each laser lesion was measured using ImagePro 4 software.
as §1

Another series can be described thus: physchem. It is filed as physicochemical. Particulars: buffer. On the procedure: The chemical stability of Example 12 of the invention has been studied using buffers at pH 1, pH 3 and pH 7. Example 12 prepared in acetonitrile at 200 μg/mL and diluted to 20 μg/mL in buffers at pH 1, pH 3 and pH 7.

For `CN(C)c1ccc2c(c1)COC2=C1C(=O)Nc2ccccc21` [Example 18, 3-(5-Dimethylamino-3H-isobenzofuran-1-ylidene)-1,3-dihydro-indol-2-one], the values for the concentration for half-maximal inhibition (IC50) in series [1] and in series [2] were 22 nM and 31 nM, respectively.

Regarding `CN(C)c1ccc2c(c1)COC2=C1C(=O)Nc2ccc(Cl)cc21` [Example 20, 5-Chloro-3-(5-dimethylamino-3H-isobenzofuran-1-ylidene)-1,3-dihydro-indol-2-one], the half-inhibitory concentration (IC50) in series [1] was determined as 33 nM; in series [2], 22 nM.

For `O=C1Nc2ccccc2C1=C1OCc2ccccc21` [Example 14, 3-(3H-isobenzofuran-1-ylidene)-1,3-dihydro-indol-2-one], the IC50 in series [1] was 110 nM.

`CN(C)c1ccc2c(c1)COC2=C1C(=O)N(CN2CCCCC2)c2ccccc21` [Example 19, 3-(5-Dimethylamino-3H-isobenzofuran-1-ylidene)-1-piperidin-1-ylmethyl-1,3-dihydro-indol-2-one]: the values for the half-inhibitory concentration (IC50) in series [1] and in series [2] were 120 nM and 133 nM, respectively.

Turning to `O=C1C(=CNc2ccc(N3CCOCC3)cc2)c2ccccc2N1CN1CCOCC1` [Example 13, 1-Morpholin-4-ylmethyl-3-[(4-morpholin-4-yl-phenylamino)-methylene]-1,3-dihydro-indol-2-one], the concentration for half-maximal inhibition (IC50) in series [1] came out at 722 nM; in series [2], 3860 nM. Also, the “% Inhibition @ Dose (mg/Kg)” value in series [3] was found to be 35% @ 75 mg/Kg.

For `O=C1C(=CNc2ccc(N3CCOCC3)cc2)c2ccccc2N1CN1CCCCC1` [Example 12, 3-[(4-Morpholin-4-yl-phenylamino)-methylene]-1-piperidin-1-ylmethyl-1,3-dihydro-indol-2-one], the IC50 amounted to 432 nM in series [1] and 478 nM in series [2]. The “% Inhibition @ Dose (mg/Kg)” value is recorded as 94% @ 80 mg/Kg (sid) in series [4] (80 mg/Kg (sid) oral once daily, day 10) and 88% @ 75 mg/Kg in series [3]. The ID50 in series [4] (oral once daily) and in series [3] (oral) was 36 mg/kg in each case. Moreover, the results for the half-life at 20 μg/mL in “physchem” (pH 1), in the series “physchem” (pH 3) and in the series “physchem” (pH 7.4) were roughly 38 h, roughly 20 h and less than 0.5 h, respectively.

Turning to `O=C1Nc2ccccc2C1=CNc1ccc(N2CCOCC2)cc1` [Example 11, 3-[(4-morpholinophenylamino)-methylene]-1,3-dihydro-indol-2-one], the IC50 in series [1] was 294 nM; in series [2] it was 260 nM. In addition, in series [3], the “% Inhibition @ Dose (mg/Kg)” value was 40% @ 75 mg/Kg.
